Results taken from US8846912B2, “Tartrate salts of quinazoline based EGFR inhibitors containing a zinc binding moiety” (Curis, Inc., priority 2007, dated 2014).

Target: HDAC
Experiment: HDAC fluorimetric enzyme assay (HeLa nuclear extract)
Type: biochemical
Description: HDAC inhibitors were screened using an HDAC fluorimetric assay kit (AK-500, Biomol, Plymouth Meeting, Pa.).
Each assay was setup as follows: Defrosted all kit components and kept on ice until use. […] Prepared dilutions of Trichostatin A (TSA, positive control) and tested compounds in assay buffer (5× of final concentration). Diluted Fluor de Lys™ Substrate in assay buffer to 100 uM (50 fold=2× final). Diluted Fluor de Lys™ developer concentrate 20-fold (e.g. 50 μl plus 950 μl Assay Buffer) in cold assay buffer. Second, diluted the 0.2 mM Trichostatin A 100-fold in the 1× Developer (e.g. 10 μl in 1 ml; final Trichostatin A concentration in the 1× Developer=2 μM; final concentration after addition to HDAC/Substrate reaction=1 μM). Added Assay buffer, diluted trichostatin A or test inhibitor to appropriate wells of the microtiter plate. Added diluted HeLa extract or other HDAC sample to all wells except for negative controls.

Compound	IC50 [nM]
COc1cc2ncnc(Nc3ccc(F)c(Cl)c3)c2cc1OCCCCCCC(=O)N(C)O [Compound 94]	> 10000
C#Cc1cccc(Nc2ncnc3cc(OC)c(NC(=O)CCCC(=O)NO)cc23)c1 [Compound 42, N^1-(4-(3-ethynylphenylamino)-7-methoxyquinazolin-6-yl)-N^5-hydroxyglutaramide]	100 to 1000
COc1cc2ncnc(Nc3ccc(F)c(Cl)c3)c2cc1OCCCC(=O)NO [Compound 3, 4-(4-(3-Chloro-4-fluorophenylamino)-7-methoxyquinazolin-6-yloxy)-N-hydroxybutanamide]	> 10000
C#Cc1cccc(Nc2ncnc3cc(OC)c(OCCCC(=O)NO)cc23)c1 [Compound 9, 4-(4-(3-ethynylphenylamino)-7-methoxyquinazolin-6-yloxy)-N-hydroxybutanamide]	100 to 1000
COc1cc2ncnc(NCc3ccc(F)c(Cl)c3)c2cc1OCCCCCCC(=O)NO [Compound 88, 7-(4-(3-chloro-4-fluorobenzylamino)-7-methoxyquinazolin-6-yloxy)-N-hydroxyheptanamide]	< 100
COCCOc1cc2ncnc(Nc3ccc(F)c(Cl)c3)c2cc1NC(=O)CCCC(=O)NO [Compound 68, N^1-(4-(3-chloro-4-fluorophenylamino)-7-(2-methoxyethoxy)quinazolin-6-yl)-N^5-hydroxyglutaramide]	1000 to 10000
COCCOc1cc2ncnc(Nc3ccc(F)c(Cl)c3)c2cc1OCCCCCCC(=O)NO [Compound 30, 7-(4-(3-Chloro-4-fluorophenylamino)-7-(2-methoxyethoxy)quinazolin-6-yloxy)-N-hydroxyheptanamide]	< 100
COc1cc2ncnc(NCc3ccc(F)c(F)c3)c2cc1OCCCCCCC(=O)NO [Compound 87, 7-(4-(3,4-difluorobenzylamino)-7-methoxyquinazolin-6-yloxy)-N-hydroxyheptanamide]	< 100
COc1cc2ncnc(Nc3ccc(F)c(Cl)c3)c2cc1NC(=O)Nc1ccc(C(=O)NO)cc1 [Compound 93]	1000 to 10000
C#Cc1cccc(Nc2ncnc3ccc(OCC(=O)NO)cc23)c1 [Compound 19, 2-(4-(3-ethynylphenylamino)quinazolin-6-yloxy)-N-hydroxyacetamide]	> 10000

More lines, now with the values ahead:

IC50 [nM]	Compound
< 100	COc1cc2ncnc(NCc3cccc(Br)c3)c2cc1OCCCCCCC(=O)NO [Compound 89, 7-(4-(3-bromobenzylamino)-7-methoxyquinazolin-6-yloxy)-N-hydroxyheptanamide]
100 to 1000	O=C(CCCCOc1ccc2ncnc(Nc3ccc(F)c(Cl)c3)c2c1)NO [Compound 16, 5-(4-(3-chloro-4-fluorophenylamino)quinazolin-6-yloxy)-N-hydroxypentanamide]
100 to 1000	COc1cc2ncnc(N[C@H](C)c3ccc(F)cc3)c2cc1OCCCCCCC(=O)NO [Compound 81, (R)-7-(4-(1-(4-fluorophenyl)ethylamino)-7-methoxyquinazolin-6-yloxy)-N-hydroxyheptanamide]
< 100	C[C@@H](Nc1ncnc2ccc(OCCCCCC(=O)NO)cc12)c1ccccc1 [Compound 78, (R)—N-hydroxy-6-(4-(1-phenylethylamino)-quinazolin-6-yloxy)hexanamide]
< 100	COc1cc2ncnc(NCc3ccccc3)c2cc1OCCCCCCC(=O)NO [Compound 85, 7-(4-(Benzylamino)-7-methoxyquinazolin-6-yloxy)-N-hydroxyheptanamide]
< 100	COc1ccc([C@@H](C)Nc2ncnc3cc(OC)c(OCCCCCCC(=O)NO)cc23)cc1 [Compound 83, (R)—N-Hydroxy-7-(7-methoxy-4-(1-(4-methoxyphenyl)ethylamino)-quinazolin-6-yloxy)-heptanamide]
100 to 1000	C[C@@H](Nc1ncnc2ccc(OCCCCCC(=O)NO)cc12)c1ccccc1 [Compound 50]
< 100	COc1cc2ncnc(NCc3ccc(F)cc3)c2cc1OCCCCCCC(=O)NO [Compound 86, 7-(4-(4-fluorobenzylamino)-7-methoxyquinazolin-6-yloxy)-N-hydroxyheptanamide]
